Experimental data as given in paper PMC8068036, “Synthesis of New Biscoumarin Derivatives, In Vitro Cholinesterase Inhibition, Molecular Modelling and Antiproliferative Effect in A549 Human Lung Carcinoma Cells” (International Journal of Molecular Sciences, 2021).
Like-named read-outs stand apart in the source and are kept apart here.

Columns and labels:
hBChE (human plasma) = biological target: T1, hBChE (human plasma) (Homo sapiens, UniProt P06276); assay: biochemical; assay type: biochemical; details: human plasma BChE, mean of at least three experiments; for IC50: read-out: IC50 ± S.E.M. hBChE
T1 construct: Human plasma was used as a source of BChE; from tissue; host or cells: human plasma from heparinized blood
T1 sequence (P06276 29-602): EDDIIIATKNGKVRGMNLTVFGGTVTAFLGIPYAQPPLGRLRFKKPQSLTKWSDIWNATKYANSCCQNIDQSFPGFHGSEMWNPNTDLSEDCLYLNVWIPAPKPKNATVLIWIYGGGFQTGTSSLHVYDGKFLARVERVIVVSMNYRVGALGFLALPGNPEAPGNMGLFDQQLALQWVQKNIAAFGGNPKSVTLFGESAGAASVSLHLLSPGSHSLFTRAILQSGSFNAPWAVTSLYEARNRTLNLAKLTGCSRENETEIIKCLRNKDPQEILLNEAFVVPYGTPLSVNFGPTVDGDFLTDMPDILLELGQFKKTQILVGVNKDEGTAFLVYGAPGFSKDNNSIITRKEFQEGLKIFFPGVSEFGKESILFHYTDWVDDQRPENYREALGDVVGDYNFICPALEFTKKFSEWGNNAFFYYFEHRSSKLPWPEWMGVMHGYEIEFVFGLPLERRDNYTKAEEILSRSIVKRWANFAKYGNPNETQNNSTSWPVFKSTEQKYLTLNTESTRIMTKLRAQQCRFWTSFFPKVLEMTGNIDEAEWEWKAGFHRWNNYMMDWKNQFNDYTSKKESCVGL
Description: (§1) Human recombinant AChE (EC 3.1.1.7), 5,5′-dithiobis(2-nitrobenzoic acid) (Ellman′s reagent, DTNB), phosphate buffer (PB, 0.1 M, pH 7.4), and acetylthiocholine (ATC) and butyrylthiocholine (BTC), were purchased from Sigma-Aldrich, Prague, Czech Republic. Human plasma was used as a source of BChE and was prepared from heparinized human blood. The blood was centrifuged for 20 min (4 °C, 2300× g) on a Hettich Universal 320R centrifuge. The plasma was separated and stored at […]. Polystyrene Nunc 96-well microplates with a flat bottom shape (ThermoFisher Scientific, Waltham, MA, USA) were used for measuring purposes.
(§2) All of the assays were carried out in a 0.1 M phosphate buffer, pH 7.4. The assay medium (100 µL) consisted of 40 µL of 0.1 M phosphate buffer (pH 7.4), 20 µL of 0.01 M DTNB, 10 µL of the enzyme, and 20 µL of 0.01 M substrate ATC/BTC iodide solution).
(§3) The tested compounds were preincubated for 5 min prior to use. The reaction was initiated immediately upon addition of 20 µL of the substrate. […] Each concentration was assayed in triplicate. Software GraphPad Prism 5 (San Diego, CA, USA) was used in the evaluation of the statistical data.

human recombinant AChE = biological target: T2, human recombinant AChE (Homo sapiens, UniProt P22303); assay: biochemical; assay type: biochemical; details: mean of at least three experiments; for IC50: read-out: IC50 ± S.E.M. hAChE
T2 construct: purchased Sigma-Aldrich, Prague, Czech Republic
T2 sequence (P22303 32-614): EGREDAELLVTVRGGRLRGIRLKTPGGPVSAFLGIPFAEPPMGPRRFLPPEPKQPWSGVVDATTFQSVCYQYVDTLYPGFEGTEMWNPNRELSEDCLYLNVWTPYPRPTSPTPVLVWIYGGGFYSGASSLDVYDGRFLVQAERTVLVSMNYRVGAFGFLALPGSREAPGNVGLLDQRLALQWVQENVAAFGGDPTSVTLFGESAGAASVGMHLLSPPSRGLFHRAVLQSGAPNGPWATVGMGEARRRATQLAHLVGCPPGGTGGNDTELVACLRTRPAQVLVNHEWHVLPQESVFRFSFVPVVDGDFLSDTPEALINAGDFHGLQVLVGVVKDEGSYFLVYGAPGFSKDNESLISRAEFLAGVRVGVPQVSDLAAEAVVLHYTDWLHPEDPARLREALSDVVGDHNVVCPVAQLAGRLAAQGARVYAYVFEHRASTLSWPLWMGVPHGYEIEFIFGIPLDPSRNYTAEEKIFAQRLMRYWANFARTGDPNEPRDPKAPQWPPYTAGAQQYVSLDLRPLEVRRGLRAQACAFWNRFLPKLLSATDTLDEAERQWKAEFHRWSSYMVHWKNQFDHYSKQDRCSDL
Description: as §1, §2, §3

in vitro = details: for CNS Predicted Availability: classification from PAMPA-BBB Pe; for Papp: PAMPA; for Papp / Pe ± S.E.M.: pH 7.4; for Pe ± S.E.M.: PAMPA-BBB
Description: The parallel artificial membrane permeability assay (PAMPA) is used as a non-cell-based in vitro assay to predict BBB penetration and is carried out in a coated 96-well membrane filter. In our assays, the filter membrane of the donor plate was coated with PBL (Polar Brain Lipid, Avanti, Denver, CO, USA) in dodecane (4 µL of 20 mg mL^−1 PBL in dodecane), and the acceptor well was filled with 300 µL of phosphate buffered saline (PBS) (pH 7.4; VA). The tested compounds were first dissolved in DMSO, and the resulting mixture was diluted with PBS (pH 7.4) to reach the final concentration (40–100 µM) in the donor well. […] Three hundred microliters of the donor solution (VD) were added to the donor wells, and the donor filter plate was carefully placed onto the acceptor plate to ensure that the coated membrane was “in contact” with both the donor solution and the acceptor buffer. The test compound diffused from the donor well through the polar brain lipid membrane (area = 0.28 cm^2) to the acceptor well. The concentration of the tested compound in both the donor and acceptor wells was assessed after 3, 4, 5, and 6 h of incubation, respectively, in quadruplicate using a UV plate reader Synergy HT (Biotek, Winooski, VT, USA) at the maximum absorption wavelength of each compound. Additionally, solutions at the theoretical equilibrium of the given compound (i.e., the theoretical concentration if the donor and acceptor compartment were simply combined) were also prepared.

A549 cells [1] = assay: MTT assay, A549; assay type: cell-based, human; details: for Metabolic activity of A549 cells (in words): 10 to 100 μM, 24 and 48 h; for IC50: Homo sapiens
Description: (§4) Human lung carcinoma cell line A549 and CCD-18Co colon fibroblasts were purchased from the American Type Culture Collection (ATCC, Rockville, MD, USA). The A549 cells were cultured in a complete RPMI-1640 medium (Sigma-Aldrich, St. Louis, MO, USA), and CCD-18Co cells were cultured in an MEM medium (PAN-Biotech GmbH, Aidenbach, Germany). The media were supplemented with 10% fetal bovine serum (FBS; Biosera, Nuaille, France) and antibiotics (1% Antibiotic-Antimycotic 100× and 50 × 10^−3 g l^−1 gentamicin; Biosera) at 37 °C, 95% humidity, and 5% CO2.
(§5) Prior to the selected treatments, cells were seeded on 12-well μ-Chamber slides (ibidi GmbH, Martinsried, Germany) and 6 and/or 96-well plates (TPP, Trasadingen, Switzerland) and left to settle for 24 h. The biscoumarin derivative solutions (at concentrations ranging from 10–100 µM) were then added to cells for 24 or 48 h, and analysis was subsequently performed.
(§6) MTT assays were performed in order to evaluate changes in the metabolic activity of cells that had occurred as a consequence of treatment with the biscoumarin derivatives. A549 cells (15 × 10^3 cells/cm^2) and CCD-18Co ([…]) were seeded in 96-well microplates. The cells were treated for 24 and 48 h with different concentrations (10, 25, 35, 50, 65, 75, and 100 µM) of the derivatives. After the treatment, the MTT (3-(4,5-dimethylthiazol-2-yl)-2,5-diphenyltertrazolium bromide) solution in PBS (5 mg mL^−1) was added to each well. […]. The absorbance of formazan (λ = 584 nm) was measured using a BMG FLUOstar Optima spectrometer (BMG Labtech GmbH, Offenburg, Germany). The results were evaluated as percentages of the absorbance of the untreated control. Results are presented as the average percentage of cells from three independent experiments. IC50 values for the derivatives were extrapolated from a sigmoidal fit (dose–response curve) to the metabolic activity data using OriginPro 8.5.0 SR1 (OriginLab Corp., Northampton, MA, USA).

A549 cells [2] = assay: Cell cycle analysis (flow cytometry, PI); assay type: cell-based, human; details: 35 and 65 µM, 24 h
Description: For flow cytometric analysis of the cell cycle distribution, floating and adherent cells were harvested together 24 h after treatment with the derivatives (35 and 65 µM), washed in cold PBS, fixed in cold 70% ethanol, and stored overnight at −20 °C. Prior to analysis, the cells were washed twice in PBS, resuspended in a staining solution (0.1% Triton X-100, 0.137 g L^−1 ribonuclease A and 0.02 g L^−1 propidium iodide—PI), and incubated in dark conditions at RT for 30 min. The DNA content was analyzed using a BD FACSCalibur flow cytometer (Becton Dickinson, San Jose, CA, USA) with a 488 nm argon-ion excitation laser, and fluorescence was detected using a 585/42 nm band-pass filter (FL-2). ModFit 3.0 software (Verity Software House, Topsham, ME, USA) was used to generate DNA content frequency histograms and to quantify the percentage of cells in the individual cell cycle phases. The results are presented as the average ratio of cells in the individual phase to all cells from three independent experiments.

CCD-18Co fibroblasts = assay: MTT assay, CCD-18Co; assay type: cell-based; details: for IC50: Homo sapiens, CCD-18Co
Description: as §4, §5, §6

[3] = A549, 24 h, read-out: IC50 A549 24 h
[4] = A549, read-out: IC50 A549 48 h, 48 h

Structure (SMILES) | IC50 ± S.E.M. hBChE (hBChE (human plasma)) | IC50 (hBChE (human plasma)) [µM] | IC50 ± S.E.M. hAChE (human recombinant AChE) | IC50 (human recombinant AChE) [µM] | CNS Predicted Availability (in vitro) | Metabolic activity of A549 cells (in words) (A549 cells [1]) | IC50 (A549 cells [1]; [3]) [µM] | IC50 (A549 cells [1]; [4]) [µM] | Papp (in vitro) [×10⁻⁶ cm/s] | Pe ± S.E.M. (in vitro) | Cell cycle distribution, G0/G1 phase (in words) (A549 cells [2]) | Metabolic activity of CCD-18Co cells (in words) (CCD-18Co fibroblasts; 24 or 48 h) | IC50 (CCD-18Co fibroblasts; 24 h, read-out: IC50 CCD-18Co 24 h) [µM] | IC50 (CCD-18Co fibroblasts; read-out: IC50 CCD-18Co 48 h, 48 h) [µM] | IC50 (CCD-18Co fibroblasts; time not stated, read-out: IC50 CCD-18Co) [µM]
COC(=O)Cc1cc(=O)oc2cc(OCCCCN3CCN(CCNC(=O)Cc4cc(=O)oc5cc(O)ccc45)CC3)ccc12 [12b] | did not show inhibitory activity | > 500 | did not show inhibitory activity | > 500 | CNS− (CNS−: low BBB permeation predicted with Pe (×10^−6 cm s^−1) < 2.0) | did not lose the ability to convert dye | > 100 | > 100 |  |  |  |  |  |  | 
COC(=O)Cc1cc(=O)oc2cc(OCCCCCCN3CCN(CCNC(=O)Cc4cc(=O)oc5cc(O)ccc45)CC3)ccc12 [12c, Methyl 2-[7-({7-[4-(2-{[2-(7-hydroxy-2-oxo-2H-4-chromenyl)acetyl]amino}ethyl)piperazino]hexyl}oxy)-2-oxo-2H-4-chromenyl]acetate] |  | > 500 |  | 88.4 ± 12.6 | CNS+/− (CNS +/−: BBB permeation uncertain with Pe (×10^−6 cm s^−1) from 4.0 to 2) | did not lose the ability to convert dye | > 100 | > 100 | 2.96 ± 0.73 | 2.0–4.0 10^−6 cm s^−1 | increased the accumulation of cell population in the G0/G1 phase |  |  |  | 
CNC(=C[N+](=O)[O-])NCCSCc1ccc(CN(C)C)o1 [Ranitidine, reference compound] |  |  |  |  | CNS− (CNS−: low BBB permeation predicted with Pe (×10^−6 cm s^−1) < 2.0) |  |  |  |  |  |  |  |  |  | 
COC(=O)Cc1cc(=O)oc2cc(OCCCCCCCN3CCN(CCNC(=O)Cc4cc(=O)oc5cc(O)ccc45)CC3)ccc12 [12d] |  | 49 |  | 6.3 ± 0.4 | CNS+/− (CNS +/−: BBB permeation uncertain with Pe (×10^−6 cm s^−1) from 4.0 to 2) | significant decrease | 94 | 58 | 2.11 ± 1.19 | 2.0–4.0 10^−6 cm s^−1 | increase in the percentage of the cell population in the G0/G1 phase | significantly reduced metabolic activity only at a concentration of 100 μM | > 100 | > 100 | > 100
Nc1c2c(nc3ccccc13)CCCC2 [Tacrine, tacrine, reference compound] |  |  |  |  | CNS+ (CNS+: high BBB permeation predicted with Pe (×10^−6 cm s^−1) > 4.0) |  |  |  |  |  |  |  |  |  | 
